Laboratory results: the supplement of paper PMC8671470

The molecules below were run on BV-173 (assay: cell viability (% survival relative to DMSO control, bortezomib = 0%); higher = less cytotoxic). Conditions: 1 nM; 72 h.
Method in brief: (§1)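 In 384-well plates pre-printed with compounds at 1, 10, 100, 1000 or 10000 nM, duplicate wells received cells from 10 AML and 5 CML lines at densities within the linear growth range. The plates stayed at 37 °C with 5% CO2 for 72 h before CellTiter-Glo luminescence was recorded. Each entry is averaged percent survival. Scaling placed vehicle at 100% and a 10 µM positive control at 0%.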

Compound | cell viability [%]
O=C(O)C(=O)CBr [3-bromopyruvic acid] | 107
NS(=O)(=O)c1ccc([N+](=O)[O-])cc1 [4-Nitrobenzenesulfonamide] | 101
Cc1ccccc1C(C(=O)NC1CCCCC1)N(C(=O)Cn1ccnc1C)c1cccc(F)c1 (stereo unspecified) [AGI-5198] | 88.3
CC(C)(C#N)c1cc(Cn2cncn2)cc(C(C)(C)C#N)c1 [Anastrozole] | 104
O=C(O)C1=CC(=C(c2ccc(O)c(C(=O)O)c2)c2ccc(O)c(C(=O)O)c2)C=CC1=O [Aurintricarboxylic acid] | 114

Same assay, conditions: 10 nM; 72 h

Compound | cell viability [%]
CN(C)C(=O)[C@H](O)[C@H](Cc1ccccc1)NC(=O)c1cc2cc(Cl)ccc2[nH]1 | 110
COc1ccc(CNC(=O)Nc2ncc([N+](=O)[O-])s2)cc1 | 100
CCOP(=O)(OCC)C(=Cc1cc(C(C)(C)C)c(O)c(C(C)(C)C)c1)P(=O)(OCC)OCC | 96.8
COc1ccc(-c2ccccc2)cc1NS(=O)(=O)c1cc(Cl)cc(Cl)c1O | 90
C[C@H](NC(=O)c1sccc1OCc1ccc(Cl)cc1)c1ccccc1 | 99.7
O=C(O)c1cc(Cl)cc(Cl)c1O [3,5-Dichlorosalicylic Acid] | 86.1
O=C(O)C(=O)CBr [3-bromopyruvic acid] | 85.9
NS(=O)(=O)c1ccc([N+](=O)[O-])cc1 [4-Nitrobenzenesulfonamide] | 95
Cc1ccccc1C(C(=O)NC1CCCCC1)N(C(=O)Cn1ccnc1C)c1cccc(F)c1 (stereo unspecified) [AGI-5198] | 103
CC(C)(C#N)c1cc(Cn2cncn2)cc(C(C)(C)C#N)c1 [Anastrozole] | 89.4
O=C(O)C1=CC(=C(c2ccc(O)c(C(=O)O)c2)c2ccc(O)c(C(=O)O)c2)C=CC1=O [Aurintricarboxylic acid] | 104

Same assay, conditions: 100 nM; 72 h

Compound | cell viability [%]
CN(C)C(=O)[C@H](O)[C@H](Cc1ccccc1)NC(=O)c1cc2cc(Cl)ccc2[nH]1 | 98.4
COc1ccc(CNC(=O)Nc2ncc([N+](=O)[O-])s2)cc1 | 101
CCOP(=O)(OCC)C(=Cc1cc(C(C)(C)C)c(O)c(C(C)(C)C)c1)P(=O)(OCC)OCC | 121
COc1ccc(-c2ccccc2)cc1NS(=O)(=O)c1cc(Cl)cc(Cl)c1O | 119
C[C@H](NC(=O)c1sccc1OCc1ccc(Cl)cc1)c1ccccc1 | 89.2
O=C(O)c1cc(Cl)cc(Cl)c1O [3,5-Dichlorosalicylic Acid] | 119
O=C(O)C(=O)CBr [3-bromopyruvic acid] | 99
NS(=O)(=O)c1ccc([N+](=O)[O-])cc1 [4-Nitrobenzenesulfonamide] | 105
Cc1ccccc1C(C(=O)NC1CCCCC1)N(C(=O)Cn1ccnc1C)c1cccc(F)c1 (stereo unspecified) [AGI-5198] | 107
CC(C)(C#N)c1cc(Cn2cncn2)cc(C(C)(C)C#N)c1 [Anastrozole] | 104
O=C(O)C1=CC(=C(c2ccc(O)c(C(=O)O)c2)c2ccc(O)c(C(=O)O)c2)C=CC1=O [Aurintricarboxylic acid] | 107

Same assay, conditions: 1000 nM; 72 h

Compound | cell viability [%]
CN(C)C(=O)[C@H](O)[C@H](Cc1ccccc1)NC(=O)c1cc2cc(Cl)ccc2[nH]1 | 105
COc1ccc(CNC(=O)Nc2ncc([N+](=O)[O-])s2)cc1 | 97.7
CCOP(=O)(OCC)C(=Cc1cc(C(C)(C)C)c(O)c(C(C)(C)C)c1)P(=O)(OCC)OCC | 89.9
COc1ccc(-c2ccccc2)cc1NS(=O)(=O)c1cc(Cl)cc(Cl)c1O | 87.1
C[C@H](NC(=O)c1sccc1OCc1ccc(Cl)cc1)c1ccccc1 | 90.1
O=C(O)c1cc(Cl)cc(Cl)c1O [3,5-Dichlorosalicylic Acid] | 106
O=C(O)C(=O)CBr [3-bromopyruvic acid] | 91.7
NS(=O)(=O)c1ccc([N+](=O)[O-])cc1 [4-Nitrobenzenesulfonamide] | 97.8
Cc1ccccc1C(C(=O)NC1CCCCC1)N(C(=O)Cn1ccnc1C)c1cccc(F)c1 (stereo unspecified) [AGI-5198] | 104
CC(C)(C#N)c1cc(Cn2cncn2)cc(C(C)(C)C#N)c1 [Anastrozole] | 95.9
O=C(O)C1=CC(=C(c2ccc(O)c(C(=O)O)c2)c2ccc(O)c(C(=O)O)c2)C=CC1=O [Aurintricarboxylic acid] | 88.3

Same assay, conditions: 10000 nM; 72 h

Compound | cell viability [%]
CN(C)C(=O)[C@H](O)[C@H](Cc1ccccc1)NC(=O)c1cc2cc(Cl)ccc2[nH]1 | 73.2
COc1ccc(CNC(=O)Nc2ncc([N+](=O)[O-])s2)cc1 | 92.7
CCOP(=O)(OCC)C(=Cc1cc(C(C)(C)C)c(O)c(C(C)(C)C)c1)P(=O)(OCC)OCC | 64.5
COc1ccc(-c2ccccc2)cc1NS(=O)(=O)c1cc(Cl)cc(Cl)c1O | 94.6
C[C@H](NC(=O)c1sccc1OCc1ccc(Cl)cc1)c1ccccc1 | 50.4
O=C(O)c1cc(Cl)cc(Cl)c1O [3,5-Dichlorosalicylic Acid] | 106
O=C(O)C(=O)CBr [3-bromopyruvic acid] | 99.7
NS(=O)(=O)c1ccc([N+](=O)[O-])cc1 [4-Nitrobenzenesulfonamide] | 86.1
Cc1ccccc1C(C(=O)NC1CCCCC1)N(C(=O)Cn1ccnc1C)c1cccc(F)c1 (stereo unspecified) [AGI-5198] | 95.2
CC(C)(C#N)c1cc(Cn2cncn2)cc(C(C)(C)C#N)c1 [Anastrozole] | 104
O=C(O)C1=CC(=C(c2ccc(O)c(C(=O)O)c2)c2ccc(O)c(C(=O)O)c2)C=CC1=O [Aurintricarboxylic acid] | 9.49

What follows are molecules tested on KCL-22 in the same assay as above. Conditions: 1 nM; 72 h.
Method in brief: as §1

Compound | cell viability [%]
CN(C)C(=O)[C@H](O)[C@H](Cc1ccccc1)NC(=O)c1cc2cc(Cl)ccc2[nH]1 | 107
COc1ccc(CNC(=O)Nc2ncc([N+](=O)[O-])s2)cc1 | 106
CCOP(=O)(OCC)C(=Cc1cc(C(C)(C)C)c(O)c(C(C)(C)C)c1)P(=O)(OCC)OCC | 98.7
COc1ccc(-c2ccccc2)cc1NS(=O)(=O)c1cc(Cl)cc(Cl)c1O | 90
C[C@H](NC(=O)c1sccc1OCc1ccc(Cl)cc1)c1ccccc1 | 111
O=C(O)c1cc(Cl)cc(Cl)c1O [3,5-Dichlorosalicylic Acid] | 105
O=C(O)C(=O)CBr [3-bromopyruvic acid] | 99.6
NS(=O)(=O)c1ccc([N+](=O)[O-])cc1 [4-Nitrobenzenesulfonamide] | 103
Cc1ccccc1C(C(=O)NC1CCCCC1)N(C(=O)Cn1ccnc1C)c1cccc(F)c1 (stereo unspecified) [AGI-5198] | 101
CC(C)(C#N)c1cc(Cn2cncn2)cc(C(C)(C)C#N)c1 [Anastrozole] | 102
O=C(O)C1=CC(=C(c2ccc(O)c(C(=O)O)c2)c2ccc(O)c(C(=O)O)c2)C=CC1=O [Aurintricarboxylic acid] | 131

Same assay, conditions: 10 nM; 72 h

Compound | cell viability [%]
CN(C)C(=O)[C@H](O)[C@H](Cc1ccccc1)NC(=O)c1cc2cc(Cl)ccc2[nH]1 | 98.3
